Measured values as given in publication PMC2637266, “Quantification of gamma-secretase modulation differentiates inhibitor compound selectivity between two substrates Notch and amyloid precursor protein” (Molecular Brain, 2008).
Where two headings read alike, the source gives them in different places.

Tests used:
[1] = target: T1, γ-secretase cleavage of NotchΔE (Homo sapiens, UniProt P49768); assay: NICD generation in NotchΔE transfected HEK293 cells, Western blot; type: cell-based; settings: for NICD generation in cultured cells: high doses
T1 construct: endogenous in cells; host or cells: HEK293 stably expressing Swedish mutant human APP695, transiently transfected with NotchΔE
Procedure: Since many compounds could behave differently in vitro versus in culture cells, cpd E and DAPT were tested in cultured cells (Fig. 2). HEK293 cells stably expressing Swedish mutant APP were transiently transfected with NotchΔE, a truncated Notch construct that is readily cleaved by the γ-secretase to generate NICD for downstream signaling transduction. NotchΔE expressing cells were treated with increasing concentrations of DAPT or cpd E. Cell lysates were subjected to WB for measuring the generation of NICD (Fig. 2A), and conditioned media were collected for Aβ measurement by ELISA (Fig. 2B,C).
(§1) Figure 2 Generation of NICD and Aβ from NotchΔE and APP expressing cells. A. Twenty four hrs after the construct carrying NotchΔE was transfected into APP expressing HEK293 cells, cells were treated with DAPT or cpd E for 8 hr and lysed for WB with antibody 1744 to specifically detect the N-terminus of NICD. Bottom panel, the antibody against α-tubulin was applied to normalize the amounts of lysates used for WB. B. Levels of NICD determined by WB were quantified by densitometry (dotted line). Levels of Aβ generated from the γ-secretase cleavage of APP in the presence of DAPT were determined by ELISA. […] C. NICD (dotted line) and Aβ (solid line) production from cpd E-treated cells were compared. […] D. A luciferase reporter construct driven by HES1 promoter was transfected into HEK293 cells followed by treatment with cpd E or DAPT.
The cDNA construct NotchΔE has a c-myc tag and is a truncated Notch molecule that is an immediate substrate for γ-secretase cleavage to generate Notch intracellular domain (NICD). Two chimeric cDNA constructs express […] the juxtamembrane portion of the APP ectodomain (the α-secretase cleavage region) replaced by the corresponding sequence in Notch (APP-α-NOTCH). These cDNA constructs were provided by Dr. Dennis Selkoe. Hes-1 reporter construct (Hes-Luc) was generated by insertion three of Su(H) binding sequence
Human embryonic kidney (HEK) 293 cells stably expressing Swedish mutant human APP695 were transfected with different cDNA constructs and maintained in 200 μg/ml G418 (Invitrogen, Carlsbad, CA). Transfected cells were treated with two γ-secretase inhibitors cpd E or DAPT for 8 hr. Conditioned media were collected for ELISA, and cell lysates were analyzed by Western blot as described. Cells co-transfected with Hes-Luc and NotchΔE were treated with compounds followed by the measurement of luciferase activity (Luciferase Assay System, Promega, Madison, WI).

[2] = test system: NICD dependent luciferase activity (Hes-1 reporter); assay: Hes-Luc luciferase reporter assay in HEK293 cells co-transfected with NotchΔE; type: cell-based, human; settings: at concentrations that completely blocked Aβ generation
Procedure: as §1
Semi-quantification of NICD levels was detected by WB, and the inhibition profile of DAPT (Fig. 2B) and cpd E (Fig. 2C) were compared on NICD and Aβ generation in cultured cells. […] Since Notch signaling and levels of NICD can be examined by quantifying the expression of the Notch target gene, a Hes-1 reporter construct (Hes-Luc) was generated by insertion of three Su(H) binding sequences in the pGL3-pro luciferase reporter vector. […]

SMILES	Notch cleavage reduced to, cell culture based assay ([1]; 1 μM or higher)	EC50 ([1]; Fig. 2B and 2C, read-out: EC50 to reduce NICD generation in cultured cells)	NICD generation in cultured cells [1]	luciferase activities remained [2]	EC50 ([1]; EC50 for the inhibition of NICD generation in cultured cells, Fig. 2)	EC50 ([1]; EC50 to reduce NICD generation in cultured cells, Fig. 2B and 2C)
C[C@H](NC(=O)Cc1cc(F)cc(F)c1)C(=O)N[C@H](C(=O)OC(C)(C)C)c1ccccc1 [DAPT, N-[N-(3,5-Difluorophenacetyl-L-alanyl)]-S-phenylglycine t-Butyl Ester]	about 50%	~1000 nM	could not completely eliminate NICD generation	about 50%		
C[C@H](NC(=O)Cc1cc(F)cc(F)c1)C(=O)N[C@H]1N=C(c2ccccc2)c2ccccc2N(C)C1=O [cpd E, (S,S)-2-[2-(3,5-Difluorophenyl)-acetylamino]-N-(1-methyl-2-oxo-5-phenyl-2,3-dihydro-1H-benzo [e] [1,4]diazepin-3-yl)-propionamide]			could not completely eliminate NICD generation	about 50%	< 100 nM	10 nM
